Laboratory results reported in patent publication US20250186326A1, “Anti-Aging Compositions” (PROGELIFE, priority 2022, published 2025).

Tests used:
[1] = test system: farnesylation of prelamin A; test: Western blot of prelamin A in human skin fibroblasts (inhibition of farnesylation); type: cell-based; settings: human skin fibroblasts AG13334, 72 h, Ritonavir 4 μM and Lopinavir 20 μM added
Protocol: (§1) Control Human fibroblast from skin (AG13334) were obtained from Coriell Institute. Cells were maintained in culture according to supplier information at 37° C. in a humidified atmosphere containing 5% CO2.
(§2) Fibroblasts were cultured 72 h without culture-media renewal.
(§3) Pravastatin/Compound II.3a • 14. Pravastatin/Compound II.2 • 15. Pravastatin/Compound I.12 • 16. Pravastatin/Compound II.5
(§4) Ritonavir (4 μM) and Lopinavir (20 μM) were added in all tested conditions to improve the lower limit of detection of prenylated prelamin A in western blots.
(§5) Total fibroblast proteins were extracted after 72 hours treatment in 100 μl of NP40 (Invitrogen) with 1× protease and phosphatase inhibitor cocktail (Life Technologies). Lysates were incubated on ice for 30 minutes, with vortexing at 10-minute intervals. Finally, they were sonicated four times (20 sec each) and then centrifuged at 13000 rpm for 10 minutes at 4° C.
(§6) Protein concentrations were determined with the BCA™ Protein Assay (Life Technologies).
(§7) The following antibodies were used in this study: rabbit monoclonal anti-lamin A/C (ab108922, 1/1000, Abcam, Amsterdam, Netherlands), mouse monoclonal anti-prelamin A (MABT858, Millipore, Molsheim, France), mouse monoclonal anti-HDJ2 (MA5-12748, Thermoscientific, France). Secondary antibodies conjugated with IR-Dye 800CW or 680 were used according to the manufacturer's instructions (926-32213 and 926-68072, 1/5000, Li-COR Biosciences).
(§8) Protein lysates were separated on NuPAGE™ Novex™ 8% Bis-Tris Midi Protein Gels (Life Technologies) and transferred to Immobilon-FL PVDF membranes (Millipore, Molsheim, France). Membranes were blocked for one hour in 1:1 diluted blocking buffer for near fluorescent western blotting (Rockland, Le Perray, France). Blocked membranes were incubated with primary antibody anti-prelamin A overnight at 4° C., following which they were washed and incubated with conjugated secondary antibody for one hour at room temperature. Then, this step was repeated with primary antibodies for HDJ2 and LMNA/C, and conjugated secondary antibodies.
(§9) Bound antibodies were detected and analyzed on an Odyssey imaging system (Li-COR Biosciences, Bad Homburg, Germany) according to the manufacturer's instructions. Revert Protein Stain (Li-COR Biosciences) was used as a total protein loading control.

farnesylation of HDJ2 = test: Western blot of unfarnesylated HDJ2 in human skin fibroblasts (inhibition of farnesylation); type: cell-based; settings: human skin fibroblasts AG13334, 72 h, Ritonavir 4 μM and Lopinavir 20 μM added
Protocol: as §1, §2, §3, §4, §5, §6, §7, §8, §9

wrinkles/fine lines = settings: 3 ppm pal-KTTKS in moisturizer, topical, 12 weeks, split-face; cited from earlier work
[2] = tested compound combined with Alendronate 10 μM
[3] = tested compound combined with Pravastatin 10 μM
[4] = controls: alendronate and/or pravastatin 10 μM without tested compound

Compound | prelamin A band (western blot, FIG. 1) [1, 2] | unfarnesylated HDJ2 band (western blot, FIG. 1) (farnesylation of HDJ2; [2]) | prelamin A band (western blot, FIG. 1) [1, 3] | unfarnesylated HDJ2 band (western blot, FIG. 1) (farnesylation of HDJ2; [3]) | other results
Oc1ccc(/C=C/c2cc(O)cc(O)c2)cc1 [Compound I.1a] | Clear bands | Clear bands |  |  | 
palmitoyl-lysine-threonine-threonine-lysine-serine [pal-KTTKS] |  |  |  |  | reduction in wrinkles/fine lines vs. placebo control (quantitative technical and expert grader image analysis) (wrinkles/fine lines): significant improvement
O=c1cc(-c2ccc(O)cc2)oc2cc(O)cc(O)c12 [Compound II.1] |  |  | Clear bands | Clear bands | 
O=C1c2cccc(O)c2C(=O)c2c(O)cc(CO)cc21 [Compound II.2] |  |  | Clear bands | Clear bands | 
O=c1c2cc(O)c(O)cc2oc2cc(O)c([C@@H]3O[C@H](CO)[C@@H](O)[C@H](O)[C@H]3O)c(O)c12 [Compound I.6a] | Clear bands | Clear bands |  |  | 
OC[C@H]1O[C@@H](OCCc2ccc(O)cc2)[C@H](O)[C@@H](O)[C@@H]1O [Compound I.12] |  |  | Clear bands | Clear bands | 
NCCCC(O)(P(=O)(O)O)P(=O)(O)O [alendronate, reference compound] |  |  |  |  | prelamin A band (western blot, FIG. 1) [1, 4]: essentially absent; unfarnesylated HDJ2 band (western blot, FIG. 1) (farnesylation of HDJ2; [4]): essentially absent
C[C@@H]1O[C@@H](O[C@H]2[C@H](Oc3cc(O)c4c(c3)O[C@H](c3ccc(O)cc3)CC4=O)O[C@H](CO)[C@@H](O)[C@@H]2O)[C@H](O)[C@H](O)[C@H]1O [Compound I.8a] | Clear bands | Clear bands |  |  | 
COc1ccc([C@@H]2CC(=O)c3c(O)cc(O[C@@H]4O[C@H](CO)[C@@H](O)[C@H](O)[C@H]4O[C@@H]4O[C@@H](C)[C@H](O)[C@@H](O)[C@H]4O)cc3O2)cc1O [Compound I.7a] | Clear bands | Clear bands |  |  | 
O=c1c(O)c(-c2ccc(O)c(O)c2)oc2cc(O)cc(O)c12 [Compound II.5] |  |  | Clear bands | Clear bands | 
Oc1cc(O)c2c(c1)O[C@H](c1ccc(O)c(O)c1)[C@@H](O)C2 [Compound II.3a] |  |  | Clear bands | Clear bands | 
